Test results taken from patent publication US11731965B2, “Tetrahydroprotoberberine compound, preparation method therefor and uses thereof, and pharmaceutical composition” (SHANGHAI INSTITUTE OF MATERIA MEDICA, CHINESE ACADEMY OF …, priority 2017, dated 2023).
Structures can show the parent of a compound that is named as a salt.

Tests used:
[1] = target: T1, human recombinant D1 receptor (Homo sapiens, UniProt P21728); experiment: D1 antagonistic activity test (LANCE cAMP, antagonism of dopamine-induced cAMP production in HEK293 cells); type: cell-based; conditions: HEK293 cells expressing human recombinant D1 receptor; test concentration 0.1 nM to 10000 nM; read-out: D1 Antagonistic Activity (IC50, nmol/L)
T1 construct: expressed in transfected cells; host or cells: HEK293
Experimental: • 1) D1 antagonistic activity test
The D1 antagonism of the compound was evaluated by testing the antagonistic action of the compounds against dopamine on the induction of cAMP production in HEK293 cells. The cAMP concentration test was performed according to the method described in the kit instructions. The test concentration of the compound was 0.1 nM to 10000 nM. SCH23390 was used as a positive control. The IC50 was calculated by Excelfit software.

[2] = target: T2, human recombinant D2 receptor (Homo sapiens, UniProt P14416); experiment: D2 antagonistic activity test (LANCE cAMP, antagonism of dopamine inhibition of cAMP production in HEK293 cells); type: cell-based; conditions: HEK293 cells expressing human recombinant D2 receptor; test concentration 0.1 nM to 10000 nM; read-out: D2 Antagonistic Activity (IC50, nmol/L)
T2 construct: expressed in transfected cells; host or cells: HEK293
Experimental: LANCE™ cAMP 384 Kit (PerkinElmer, USA) was used to test the antagonism of the compound against the D1 receptor using the HEK293 cells expressing human recombinant D1 receptor. The D1 antagonism of the compound was evaluated by testing the antagonistic action of the compounds against dopamine on the induction of cAMP production in HEK293 cells. The cAMP concentration test was performed according to the method described in the kit instructions. The test concentration of the compound was 0.1 nM to 10000 nM. SCH23390 was used as a positive control. The IC50 was calculated by Excelfit software. The test results of some compounds were shown in Table 1. • 2) D2 antagonistic activity test LANCE™ cAMP 384 Kit (PerkinElmer, USA) was used to test the antagonism of the compound against the D2 receptor using the HEK293 cells expressing human recombinant D2 receptor. The D2 antagonism of the compound was evaluated by testing the antagonistic action of the compounds against dopamine on the inhibition of cAMP production in HEK293 cells. The cAMP concentration test was performed according to the method described in the kit instructions. The test concentration of the compound was 0.1 nM to 10000 nM. Risperidone was used as a positive control. The IC50 was calculated by Excelfit software. The test results of some compounds were shown in Table 1 (ND means the test was not performed).

[3] = test system: PCP-induced high spontaneous activity in mice; experiment: PCP-induced high spontaneous activity test in mice; type: in vivo, Male ICR mice; conditions: dose by gavage that significantly reduces PCP (7 mg/kg ip) induced high spontaneous activity of mice vs model group
Experimental: PCP (phencylidine) was dissolved in physiological saline to prepare a 7 mg/kg solution. The test compound was formulated with a 0.5% CMC-Na solution to a solution with suitable concentration, ready-to-use. Male ICR mice were 18-22 g. Mice were randomly divided into a solvent control group, a model control group, a positive control group, and each test drug group during the test. There were 8 mice in each group. Mice in each group were given each test drug by gavage. 45 minutes after the test drug was administered, mice were injected with a PCP (7 mg/kg) solution intraperitoneally. The spontaneous, open field video analysis system was used to record the mouse movement trajectory within 45 min after administration of test drug or saline, and then the mouse movement trajectory within 75 min after PCP administration. Spontaneous, open field video analysis system was used to analyze the mouse's movement trajectory, and the total distance of the movement of the mice in each group was counted. The result was expressed as mean±SD. Results were analyzed by one-way analysis of variance.

T1 sequence (P21728 whole entry): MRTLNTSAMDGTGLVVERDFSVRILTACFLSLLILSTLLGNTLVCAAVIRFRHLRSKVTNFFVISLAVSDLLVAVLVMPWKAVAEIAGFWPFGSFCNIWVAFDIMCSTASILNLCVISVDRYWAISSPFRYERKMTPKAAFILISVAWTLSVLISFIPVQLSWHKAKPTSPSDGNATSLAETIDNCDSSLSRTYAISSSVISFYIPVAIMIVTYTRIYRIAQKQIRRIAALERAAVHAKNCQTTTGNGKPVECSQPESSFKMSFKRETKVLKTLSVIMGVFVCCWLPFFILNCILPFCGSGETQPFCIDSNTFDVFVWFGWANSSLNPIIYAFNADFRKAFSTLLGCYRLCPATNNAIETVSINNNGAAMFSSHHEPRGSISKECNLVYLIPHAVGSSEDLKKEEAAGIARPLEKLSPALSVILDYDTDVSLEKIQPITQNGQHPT
T2 sequence (P14416 whole entry): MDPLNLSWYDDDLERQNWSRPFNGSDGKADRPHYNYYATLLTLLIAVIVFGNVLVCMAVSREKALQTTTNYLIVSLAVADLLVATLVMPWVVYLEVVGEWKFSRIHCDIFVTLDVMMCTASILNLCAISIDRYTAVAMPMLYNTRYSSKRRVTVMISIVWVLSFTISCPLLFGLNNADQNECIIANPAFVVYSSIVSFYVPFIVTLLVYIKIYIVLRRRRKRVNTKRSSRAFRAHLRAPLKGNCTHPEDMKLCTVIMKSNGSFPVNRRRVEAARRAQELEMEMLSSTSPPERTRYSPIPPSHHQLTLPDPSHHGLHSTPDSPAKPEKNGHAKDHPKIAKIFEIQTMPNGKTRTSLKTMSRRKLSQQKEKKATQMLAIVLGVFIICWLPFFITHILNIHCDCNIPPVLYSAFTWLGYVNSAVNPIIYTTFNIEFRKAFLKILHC

| IC50 [1] | IC50 [2] | Compound | Effective Dose [3] |
| --- | --- | --- | --- |
| 2160 nmol/L | – | COc1cc2c(cc1OC)[C@@H]1Cc3ccc(C(N)=O)c(OC)c3CN1CC2 [Example 28, (S)-2,3,9-trimethoxy-10-carbamoyl-6,8,13,13a-tetrahydro-5H-dibenzo[a,g] quinolizine] | – |
| – | 663 nmol/L | COc1cc2c(cc1OC)[C@@H]1Cc3ccc(CNC(C)=O)c(OC)c3CN1CC2 [Example 32, (S)-2,3,9-trimethoxy-10-acetaminomethyl-6,8,13,13a-tetrahydro-5H-dibenzo[a,g] quinolizine] | – |
| 1300 nmol/L | – | COc1cc2c(cc1OC)[C@@H]1Cc3ccc(OC)c(C=O)c3CN1CC2 [Example 24, (S)-2,3,10-trimethoxy-9-formyl-6,8,13,13a-tetrahydro-5H-dibenzo [a,g] quinolizine] | – |
| 220 nmol/L | 450 nmol/L | C=CCOc1cc2c(cc1OC)CCN1Cc3c(ccc(OC)c3OC)C[C@@H]21 [Example 52, (S)-2-allyloxy-3,9,10-trimethoxy-6,8,13,13a-tetahydro-5H-dibenzo [a,g] quinolizine] | 20 mg/kg |
| 26.2 nmol/L | 427 nmol/L | COc1ccc2c(c1OC)CN1CCc3cc4c(cc3C1C2)C(=O)NC4=O (stereo not drawn) [Example 36, 9,10-dimethoxy-5,6,13,13a-tetrahydroisoquinolino[3,2-a]pyrrolo [3,4-g]isoquinoline-1,3(2H,8H)-dione] | 10 mg/kg |
| 1300 nmol/L | – | COc1cc2c(cc1OC)[C@@H]1Cc3ccc(OC)c(C#N)c3CN1CC2 [Example 19, (S)-2,3,10-trimethoxy-9-cyano-6,8,13,13a-tetrahydro-5H-dibenzo [a,g] quinolizine] | 20 mg/kg |
| – | 940 nmol/L | COc1cc2c(cc1OC)[C@@H]1Cc3ccc(C)c(OC)c3CN1CC2 [Example 26, (S)-2,3,9-trimethoxy-10-methyl-6,8,13,13a-tetrahydro-5H-dibenzo [a,g] quinolizine] | – |
| 960 nmol/L | 1300 nmol/L | COc1cc2c(cc1OC1CC1)[C@@H]1Cc3ccc(OC)c(OC)c3CN1CC2 [Example 53, (S)-2-cyclopropoxy-3,9,10-trimethoxy-6,8,13,13a-tetrahydro-5H-dibenzo[a,g] quinolizine hydrochloride] | 20 mg/kg |
| 31.1 nmol/L | 291 nmol/L | COc1ccc2c(c1OC)CN1CCc3cc(OC)c4nc[nH]c4c3[C@@H]1C2 [Example 42, (S)-4,10,11-trimethoxy-1,6,7,9,14,14a-hexahydroimidazo[4,5-h] isoquinolino[3,2-a]isoquinoline] | 10 mg/kg |
| 443 nmol/L | – | COc1cc2c(cc1OCCO)[C@@H]1Cc3ccc(OCCO)c(OC)c3CN1CC2 [Example 55, (S)-2,10-di(hydroxyethoxy)-3,9-dimethoxy-6,8,13,13a-tetrahydro-5H-dibenzo [a,g] quinolizine] | – |
| 390 nmol/L | 610 nmol/L | COc1cc2c(cc1CCO)[C@@H]1Cc3ccc(OC)c(OC)c3CN1CC2 [Example 18, (S)-2-hydroxyethyl-3,9,10-trimethoxy-6,8,13,13a-tetrahydro-5H-dibenzo[a,g] quinolizine] | 20 mg/kg |
| 116 nmol/L | – | COc1ccc2c(c1OC)CN1CCc3cc4ncoc4cc3C1C2 (stereo not drawn) [Example 45, 9,10-Dimethoxy-6,8,13,13a-tetrahydro-5H-isoquinolino[3,2-a] oxazolo[4,5-g]isoquinoline] | – |
| – | 2500 nmol/L | COc1cc2c(cc1OC)[C@@H]1Cc3ccc(C=O)c(OC)c3CN1CC2 [Example 29, (S)-2,3,9-trimethoxy-10-formyl-6,8,13,13a-tetrahydro-5H-dibenzo [a,g] quinolizine] | – |
| 219 nmol/L | – | COc1ccc2c(c1OC)CN1CCc3ccc4oc(=O)[nH]c4c3C1C2 (stereo not drawn) [Example 49, 10,11-Dimethoxy-6,7,14,14a-tetrahydro-1H-isoquinolino[3,2-a] oxazolo[5,4-h] isoquinoline-2 (9H)-one] | 10 mg/kg |
| 1080 nmol/L | 510 nmol/L | COc1cc2c(cc1OC)[C@@H]1Cc3ccc(CO)c(OC)c3CN1CC2 [Example 30, (S)-2,3,9-trimethoxy-10-hydroxymethyl-6,8,13,13a-tetrahydro-5H-dibenzo[a,g] quinolizine] | – |
| – | 280 nmol/L | CCCc1cc2c(cc1OC)CCN1Cc3c(ccc(OC)c3OC)C[C@@H]21 [Example 2, (S)-2-n-propyl-3,9,10-trimethoxy-6,8,13,13a-tetrahydro-5H-dibenzo [a,g] quinolizine] | 20 mg/kg |
| 855 nmol/L | – | COc1ccc2c(c1OC)CN1CCc3ccc4c(c3C1C2)NC(=O)CO4 (stereo not drawn) [Example 50, 11,12-Dimethoxy-3,7,8,10,15,15a-hexahydroisoquinolino[3,2-a][1,4] oxazino [2,3-h]isoquinoline-2(1H)-one] | 10 mg/kg |
| 49 nmol/L | 210 nmol/L | COc1cc2c(cc1C=O)[C@@H]1Cc3ccc(OC)c(OC)c3CN1CC2 [Example 6, (S)-2-formyl-3,9,10-trimethoxy-6,8,13,13a-tetrahydro-5H-dibenzo[a,g] quinolizine] | – |
| – | – | COc1cc2c(cc1NC(C)=O)[C@@H]1Cc3ccc(NC(C)=O)c(OC)c3CN1CC2 [Example 34, (S)-2,10-di(acetamino)-3,9-dimethoxy-6,8,13,13a-tetrahydro-5H-dibenzo[a,g] quinolizine] | 20 mg/kg |
| – | 54 nmol/L | COc1ccc2c(c1OC)CN1CCc3cc(OC)c4nn[nH]c4c3[C@@H]1C2 [Example 43, (S)-4,10,11-trimethoxy-1,6,7,9,14,14a-hexahydroisoquinolino[3,2-a] [1,2,3]triazolo[4,5-h]isoquinoline] | – |
| – | 390 nmol/L | COc1cc2c(cc1OC(F)F)[C@@H]1Cc3ccc(OC)c(OC)c3CN1CC2 [Example 51, (S)-2-(difluoromethoxy)-3,9,10-trimethoxy-6,8,13,13a-tetrahydro-5H-dibenzo[a,g] quinolizine] | – |
| 672 nmol/L | 139 nmol/L | COc1ccc2c(c1OC)CN1CCc3cc4nc[nH]c4cc3C1C2 (stereo not drawn) [Example 44, 9,10-Dimethoxy-1,5,6,8,13,13a-hexahydroimidazo[4,5-g]isoquinolino [3,2-a]isoquinoline] | – |
| – | 20 nmol/L | COc1ccc2c(c1OC)CN1CCc3cc(OC)c4[nH]c(=S)[nH]c4c3[C@@H]1C2 [Example 41, (S)-4,10,11-trimethoxy-3,6,7,9,14,14a-Hexahydroimidazo[4,5-h] isoquinolino [3,2-a]isoquinoline-2(1H)-thione] | 3 mg/kg |
| 120 nmol/L | 550 nmol/L | COc1cc2c(cc1Br)[C@@H]1Cc3ccc(OC)c(OC)c3CN1CC2 [Example 15, (S)-2-bromo-3,9,10-tritmethoxy-6,8,13,13a-tetrahydro-5H-dibenzo [a,g] quinolizine] | – |
| 310 nmol/L | 950 nmol/L | COc1cc2c(cc1C#N)[C@@H]1Cc3ccc(OC)c(OC)c3CN1CC2 [Example 4, (S)-2-cyano-3,9,10-trimethoxy-6,8,13,13a-tetrahydro-5H-dibenzo [a,g] quinolizine] | – |

| Compound | IC50 [1] | IC50 [2] | Effective Dose [3] |
| --- | --- | --- | --- |
| COc1ccc2c(c1OC)CN1CCc3cc(OC)c4[nH]c(=O)[nH]c4c3[C@@H]1C2 [Example 40, (S)-4,10,11-trimethoxy-3,6,7,9,14,14a-hexahydroimidazo[4,5-h] isoquinolino[3,2-a]isoquinoline-2(1H)-one] | 4 nmol/L | 27 nmol/L | 20 mg/kg |
